These results are taken from paper PMC3514547 (Biochemistry, 2012).

“And” between values parts separate entries of the source, which are not always exact repeats. Equal entries are not always repeated. Where two headings read alike, the source gives them in different places.

In data set [1] the target is T1, Pot1pN (first DNA-binding OB fold of S. pombe Pot1) (Schizosaccharomyces pombe, UniProt O13988). The conditions noted are these: read-out: KD of Pot1pN/6mer interaction; cognate ssDNA ligand; cited from earlier work.
Data set [2] deals with T1, Pot1pN (first DNA-binding OB fold of S. pombe Pot1). As to the kind of experiment: ITC of ligand binding to Pot1pN. The conditions noted are these: for -TΔS / ΔH / Kd: ITC, 20 °C; for Kd: one-site binding model.
The next data set relates to germ cells. To be noted: prenatal administration during germ cell development, mice; cited from earlier work.
Data set [3] has as its target T2, hPOT1-DBD binding to d(GGTTAGGGTTAG) (Homo sapiens, UniProt Q9NUX5).
T2 sequence (Q9NUX5 1-299): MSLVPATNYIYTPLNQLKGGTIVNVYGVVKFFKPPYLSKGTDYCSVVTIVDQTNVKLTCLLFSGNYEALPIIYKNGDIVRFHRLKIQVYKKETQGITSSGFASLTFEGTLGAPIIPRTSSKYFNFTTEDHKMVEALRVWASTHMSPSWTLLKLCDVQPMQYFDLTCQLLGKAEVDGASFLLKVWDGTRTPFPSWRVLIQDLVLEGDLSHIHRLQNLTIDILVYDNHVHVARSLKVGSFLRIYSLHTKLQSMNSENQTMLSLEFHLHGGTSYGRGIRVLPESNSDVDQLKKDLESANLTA
The experiment in a line: Double filter-binding competition assay, hPOT1-DBD/telomeric ssDNA.

The conditions of data set [4]: cited from earlier work.
Data set [5] has as its system cell culture and animal models. The conditions noted are these: high doses (~ 100 μM); cited from earlier work.
The target of data set [6] is T3, Pot1pN binding to 6mer ssDNA (Schizosaccharomyces pombe, UniProt O13988).
T3 sequence (O13988 1-187 limits assumed): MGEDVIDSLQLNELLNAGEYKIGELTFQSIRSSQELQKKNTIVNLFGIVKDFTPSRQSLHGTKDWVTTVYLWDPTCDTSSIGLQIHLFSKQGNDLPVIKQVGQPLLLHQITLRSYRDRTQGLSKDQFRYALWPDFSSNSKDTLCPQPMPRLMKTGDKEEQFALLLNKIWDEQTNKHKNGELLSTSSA
The experiment in a line: Secondary double filter-binding assay, Pot1pN/6mer. The conditions noted are these: compound up to 500 μM.

The next data set deals with T4, Pot1pN (Schizosaccharomyces pombe, UniProt O13988).
T4 sequence (O13988 1-187 limits assumed): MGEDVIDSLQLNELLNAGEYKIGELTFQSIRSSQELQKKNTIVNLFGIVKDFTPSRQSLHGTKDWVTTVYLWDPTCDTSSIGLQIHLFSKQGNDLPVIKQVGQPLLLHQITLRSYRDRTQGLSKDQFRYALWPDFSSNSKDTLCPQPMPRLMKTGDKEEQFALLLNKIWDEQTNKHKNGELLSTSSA
The experiment in a line: Dynamic light scattering of Pot1pN/CR complex. To be noted: DLS, equimolar CR 300 μM.

Data set [7] addresses T5, SpPot1-DBD binding to d(GGTTACGGTTAC) (Schizosaccharomyces pombe, UniProt O13988).
T5 sequence (O13988 1-389 limits assumed): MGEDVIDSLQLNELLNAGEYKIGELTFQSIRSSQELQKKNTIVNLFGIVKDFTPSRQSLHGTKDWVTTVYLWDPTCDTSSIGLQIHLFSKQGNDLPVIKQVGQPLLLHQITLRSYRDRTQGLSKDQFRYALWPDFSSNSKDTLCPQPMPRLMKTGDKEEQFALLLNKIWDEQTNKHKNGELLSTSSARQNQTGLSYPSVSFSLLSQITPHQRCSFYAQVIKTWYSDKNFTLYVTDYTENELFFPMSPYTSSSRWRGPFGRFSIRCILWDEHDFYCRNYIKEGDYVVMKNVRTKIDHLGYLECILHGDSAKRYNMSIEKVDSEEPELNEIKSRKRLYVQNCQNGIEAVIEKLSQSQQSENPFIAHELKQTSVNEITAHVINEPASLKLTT
The experiment in a line: Double filter-binding competition assay, SpPot1-DBD/cognate ssDNA.

Another data set in a line: CR solubility at NMR pH. Format: physicochemical.
The next data set deals with amyloidosis phenotypes. To be noted: low doses (≤ 10 μM); cited from earlier work.
The target in a further data set is T6, SpPot1-DBD (Pot1-DBD) (Schizosaccharomyces pombe, UniProt O13988 1-389).
T6 sequence: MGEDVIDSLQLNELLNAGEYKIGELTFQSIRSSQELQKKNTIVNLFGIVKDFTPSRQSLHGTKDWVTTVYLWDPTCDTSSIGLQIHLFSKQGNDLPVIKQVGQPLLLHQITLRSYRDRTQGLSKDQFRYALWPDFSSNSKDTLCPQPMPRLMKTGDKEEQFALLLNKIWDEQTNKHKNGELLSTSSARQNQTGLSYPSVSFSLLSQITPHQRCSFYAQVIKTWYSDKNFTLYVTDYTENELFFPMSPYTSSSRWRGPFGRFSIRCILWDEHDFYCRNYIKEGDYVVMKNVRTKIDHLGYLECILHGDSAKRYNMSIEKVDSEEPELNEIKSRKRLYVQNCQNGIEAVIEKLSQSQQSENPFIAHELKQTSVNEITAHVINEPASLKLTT
The experiment in a line: double-filter binding.

A further data set has as its target T7, 6xHis-Pot1pN (TR-FRET) (Schizosaccharomyces pombe, UniProt O13988 1-187).
T7 sequence: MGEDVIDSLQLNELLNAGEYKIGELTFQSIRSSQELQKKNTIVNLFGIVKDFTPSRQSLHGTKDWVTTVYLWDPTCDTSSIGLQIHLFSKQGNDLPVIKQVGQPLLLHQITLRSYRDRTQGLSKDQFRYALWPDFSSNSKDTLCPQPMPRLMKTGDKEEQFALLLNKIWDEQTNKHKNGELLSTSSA
The experiment in a line: TR-FRET. In general terms: In TR-FRET formats the signal depends on donor and acceptor labels being close together.

Data set [8] concerns the target T8, Pot1pN (first OB fold of SpPot1) (Schizosaccharomyces pombe, UniProt O13988 1-187).
T8 sequence: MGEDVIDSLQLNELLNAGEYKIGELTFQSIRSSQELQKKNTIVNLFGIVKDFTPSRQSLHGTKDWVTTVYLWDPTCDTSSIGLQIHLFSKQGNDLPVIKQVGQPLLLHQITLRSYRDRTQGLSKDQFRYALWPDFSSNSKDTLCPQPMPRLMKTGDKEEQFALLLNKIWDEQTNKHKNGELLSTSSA
The experiment in a line: double-filter binding.

For another data set, the target named is T9, hPOT1 (hPOT1-DBD) (human, UniProt Q9NUX5 1-299).
T9 sequence: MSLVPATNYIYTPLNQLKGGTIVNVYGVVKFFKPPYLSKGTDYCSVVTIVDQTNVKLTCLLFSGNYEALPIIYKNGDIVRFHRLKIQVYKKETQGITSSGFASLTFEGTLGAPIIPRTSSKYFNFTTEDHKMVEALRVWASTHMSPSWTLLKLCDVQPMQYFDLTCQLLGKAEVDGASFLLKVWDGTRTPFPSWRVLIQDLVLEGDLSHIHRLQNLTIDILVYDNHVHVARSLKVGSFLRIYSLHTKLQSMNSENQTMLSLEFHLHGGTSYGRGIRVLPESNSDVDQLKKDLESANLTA
As to the kind of experiment: double-filter binding.

By IC50 is commonly meant the point on the concentration scale where inhibition reaches its midpoint. Higher therefore signals a need for much substance.

On to d(GGTTAC) [6mer], for which the Kd in data set [1] is 30 nM.

For the molecule `Cc1cc(-c2ccc(/N=N/c3c(S(=O)(=O)O)cc4cc(S(=O)(=O)O)cc(N)c4c3O)c(C)c2)ccc1/N=N/c1c(S(=O)(=O)O)cc2cc(S(=O)(=O)O)cc(N)c2c1O` [TB, Trypan blue], in data set [2], the “-TΔS” value stood at 5.7 ± 0.02 kcal/mol; the ΔH is given as -13.6 ± 0.004 kcal/mol; the Kd was 1210 nM and 1200 nM.

On to `Nc1c(/N=N/c2ccc(-c3ccc(/N=N/c4cc(S(=O)(=O)O)c5ccccc5c4N)cc3)cc2)cc(S(=O)(=O)O)c2ccccc12` [CR, Congo red], for which the “effect on germ cell number” value in the data set with germ cells is “drastic and permanent reduction in germ cell number”. The molecule also gave a half-maximal inhibitory concentration (IC50) in data set [3] of 130000 ± 17000 nM. Also, the aggregation point in data set [4] was 50 µM. The toxicity result in data set [5] was “toxic”. The “inhibition of Pot1pN binding to 6mer” value in data set [6] is listed as “functionally inhibited Pot1pN binding to 6mer”. For the same molecule, at Pot1pN, the “calculated radius of Pot1pN/CR species” value is 3.8 nm. In addition, the “calculated MW of Pot1pN/CR species” value at Pot1pN (consistent with 3:3 trimer complex) is 77 kDa. The “binding stoichiometry (n)” value in data set [2] (ITC forward titration, one-site model) is 1.07 ± 0.02. In data set [2], the “-TΔS” value was 1.4 ± 0.2 kcal/mol, the ΔH is reported as -9.7 ± 0.2 kcal/mol and the Kd amounted to 700 ± 10 nM. The IC50 in data set [7] amounted to 112000 ± 9000 nM. In “CR solubility at NMR pH”, the “solubility behaviour at pH 6.15” value is “precipitates from solution”. For the same molecule, the “effect on amyloidosis phenotypes and cell survival” value in the data set on amyloidosis phenotypes was “rescue amyloidosis phenotypes and prolong cell survival”.

On to `Cc1ccc2c(c1)sc(-c1ccc(N(C)C)cc1)[n+]2C` [Thioflavin T], for which the “inhibition of Pot1pN binding to 6mer” value in data set [6] is listed as “no effect”. For the same molecule, in [2] (2 mM Thioflavin T titrated into Pot1pN, single replicate), the “binding to Pot1pN by ITC” value is given as “no detectable binding”.

Regarding GGTTACGGTTAC (ssDNA) [d(GGTTACGGTTAC)], the binding result with SpPot1-DBD (Pot1-DBD) is “binds”.

TAAGGTTAC (ssDNA, 5' biotin (printed as biotin-conjugated threonine), 3-nt TAA linker) [biotin-d(TAAGGTTAC)]: in the data set with 6xHis-Pot1pN (TR-FRET), the binding result is listed as “binds”.

As to GGTTAC (ssDNA) [6mer], the binding result in data set [8] is listed as “binds”.

With GGTTAGGGTTAG (ssDNA) [d(GGTTAGGGTTAG)], in the data set with hPOT1 (hPOT1-DBD), the binding result was “binds”.
